C[C@H]1[C@H](OC(=O)CCC(=O)O)O[C@@H]2O[C@@]3(C)CC[C@H]4[C@H](C)CC[C@@H]1[C@@]24OO3
solubility (mole fraction)
Details	278.15 K	283.15 K	288.15 K	293.15 K	298.15 K	303.15 K	308.15 K	313.15 K	318.15 K
in ethanol	0.00528	0.00575	0.00636	0.00709	0.00782	0.00854	0.00939	0.0102	0.0111
in isopropanol	0.00285	0.00336	0.00392	0.00461	0.00527	0.00609	0.00698	0.00796	0.00898
in methanol	0.00497	0.00538	0.00606	0.00677	0.00747	0.00817	0.00906	0.00994	0.0108
in propylene glycol	0.001	0.00123	0.00148	0.00176	0.00205	0.00237	0.00279	0.0032	0.00366
in water	9.48e-06	1.28e-05	1.66e-05	2.16e-05	2.71e-05	3.51e-05	4.44e-05	5.54e-05	6.94e-05
